From patent US20230100844A1, “IBOGAINE COMBINATION TREATMENT” (ATAI Life Sciences AG, priority 2021, published 2023)
Read-outs that look alike come from different tables or passages of the source.

Key:
CYP2D6 = target: T1, CYP2D6 (Homo sapiens, UniProt P10635); conditions: humans; cited from earlier work
T1 construct: host or cells: human subjects (endogenous enzyme of gut wall and liver)

[1] = cited from earlier work
[2] = cited from earlier work; for plasma exposures with chronic paroxetine: CYP2D6 extensive metabolizers, paroxetine 10-20 mg, single ibogaine 20 mg (about 0.3 mg/kg); for time out to which ibogaine plasma exposures are detectable: single ibogaine 20 mg
[3] = single oral administration, humans; cited from earlier work
[4] = oral administration; cited from earlier work
[5] = Nonclinical proof-of-concept PD study: drug self-administration after CYP2D6 inhibitor plus ibogaine; assay type: in vivo, rats and/or nonhuman primates; conditions: single dose CYP2D6 inhibitor followed by single dose ibogaine
Protocol: Nonclinical proof-of-concept PD studies (rats and/or nonhuman primates):
Dose(s) of CYP2D6 inhibitor based on prior PK studies in the same species are tested. Intravenous drug self-administration studies involve training the animal to emit a response (e.g., lever press) for a non-drug reinforcer (e.g., food) under specific stimulus conditions in the test chamber. Then, the animal undergoes aseptic surgery to place a chronically indwelling intravenous cannula that is connected to a drug infusion system within the test chamber. After surgical recovery, the stimulus conditions in the test chamber now signal the availability of a drug reinforcer (e.g., morphine or cocaine), and lever pressing results in an intravenous infusion of the available drug during daily session. For studies of oral self-administration (e.g., ethanol), animals are trained to self-administer the drug using a lever paradigm (e.g., in which pressing of the lever results in delivery of the drug solution into a drinking cup) or a two-bottle choice […] paradigm (e.g., in which animals are allowed to drink for 24 hours from one bottle containing a drug solution or another bottle containing water). During a test session, vehicle or a dose of CYP2D6 inhibitor is administered prior to a dose of ibogaine and then, responses on the drug-associated lever or the volume of drug solution consumed are measured.

[6] = animals, meta-analysis; cited from earlier work
[7] = single oral 10 mg/kg ibogaine, cited from earlier work
[8] = in vivo; cited from earlier work
[9] = single oral 8-12 mg/kg HCl; cited from earlier work
[10] = in vivo; cited from earlier work; remark: listed apart in the source

T1 sequence (P10635 whole entry): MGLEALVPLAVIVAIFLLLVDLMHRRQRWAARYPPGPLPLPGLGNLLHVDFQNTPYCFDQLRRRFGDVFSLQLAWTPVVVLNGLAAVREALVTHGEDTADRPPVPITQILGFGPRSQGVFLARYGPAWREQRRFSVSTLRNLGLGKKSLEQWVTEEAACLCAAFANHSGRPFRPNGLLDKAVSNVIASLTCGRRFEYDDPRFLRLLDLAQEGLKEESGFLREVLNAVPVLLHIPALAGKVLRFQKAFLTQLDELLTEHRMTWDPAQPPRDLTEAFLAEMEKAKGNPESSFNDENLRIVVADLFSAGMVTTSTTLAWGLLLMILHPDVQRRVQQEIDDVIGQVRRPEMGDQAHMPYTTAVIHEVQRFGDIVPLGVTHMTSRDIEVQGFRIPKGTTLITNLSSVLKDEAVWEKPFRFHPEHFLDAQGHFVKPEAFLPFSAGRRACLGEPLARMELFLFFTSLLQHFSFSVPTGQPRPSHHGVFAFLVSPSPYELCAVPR

In the case of `C=C[C@H]1C[N@@]2CC[C@H]1C[C@@H]2[C@@H](O)c1ccnc2ccc(OC)cc12` [Quinidine, quinidine], the “in vivo CYP2D6 inhibition” value (CYP2D6) is given as “can inhibit the metabolism of the CYP2D6 substrate debrisoquine in vivo”.
For `C[C@H]1NC(C)(C)CO[C@]1(O)c1cccc(Cl)c1` [hydroxybupropion], the half-life of metabolite ([1]; bupropion metabolites that also inhibit CYP2D6) is given as 22 to 25 h.
In the case of `CCC1CC2CC3c4[nH]c5ccc(OC)cc5c4CCN(C2)C13` (stereo not shown) [ibogaine, Ibogaine], the “plasma exposures with chronic paroxetine” value [2] is listed as “increased plasma exposures”, the “time out to which ibogaine plasma exposures are detectable” value ([2]; chronic paroxetine 10-20 mg) is listed as 72 h and the “time out to which ibogaine plasma exposures are detectable” value ([2]; chronic placebo treatment) is listed as under 4 h. For the same molecule, the “time blood concentrations were detectable” value [3] was “about 24 h”, the “time to peak blood concentration” value [3] was “peaked within a couple of hours” and the “cardiac QT interval” value [4] was “associated with cardiac QT interval prolongation”. The “therapeutic-like effects (reduction of drug self-administration) with CYP2D6 inhibitor pretreatment” value [5] was “increases ibogaine's therapeutic-like effects”, the “self-administration of drugs (opiates, cocaine, ethanol)” value [6] was “reduced self-administration of several drugs” and the “absorbed ibogaine eliminated by 24 hours post dose” value ([7]; CYP2D6 extensive metabolizers) was over 90%. For the same molecule, the “exposure in CYP2D6 poor metabolizers compared to extensive metabolizers” value [7] was “modestly increased”, the “time within which visualizations and perceptual changes subside” value [8] was 6 to 8 h and the “opioid withdrawal signs, craving and mood” value [9] was “reduced opioid withdrawal signs and craving and increased mood”.
In the case of `CNCCC(Oc1ccc(C(F)(F)F)cc1)c1ccccc1` (stereo not shown) [Fluoxetine, fluoxetine], the half-life [10] is given as “long half-life (days)”.
For `CC(NC(C)(C)C)C(=O)c1cccc(Cl)c1` (stereo not shown) [bupropion], the single-dose half-life ([1]; single dose) is listed as 10 to 15 h.
In the case of `CC[C@H]1C[C@H]2C[C@H]3c4[nH]c5ccc(O)cc5c4CCN(C2)[C@@H]13` [noribogaine], the “plasma exposures with chronic paroxetine” value [2] is given as “decreased plasma exposures”, the “time blood concentrations were detectable” value [3] is given as “detectable for a longer duration” and the “time to peak blood concentration” value [3] is given as “peaked later”. For the same molecule, the Cmax in blood ([7]; CYP2D6 extensive metabolizers) was “in the same range as the parent drug”, the “concentrations at 24 hours” value ([7]; CYP2D6 extensive metabolizers) was “remained elevated” and the “exposure in CYP2D6 poor metabolizers compared to extensive metabolizers” value [7] was “markedly decreased”.
